Data on 3 molecules can be found in US7019001B2, “Substituted benzothiazole amide derivatives” (Hoffman-La Roche Inc., priority 2001, dated 2006).

In data set [1] the target is T1, human adenosine A2A receptor (Homo sapiens, UniProt P29274).
T1 construct: expressed in transfected cells; host or cells: CHO cells, semliki forest virus expression system; washed membrane pellet used
Description: [3H]-SCH-58261 binding assay, human adenosine A2A receptor (CHO cell membranes, SPA). As to conditions: displacement of [3H]-SCH-58261 (1 nM); recombinant receptor in CHO membranes; Ki by Cheng-Prussoff equation; read-out: hA2 (pKi) (converted). The procedure: Human Adenosine A2A Receptor
The human adenosine A2A receptor was recombinantly expressed in chinese hamster ovary (CHO) cells using the semliki forest virus expression system. Cells were harvested, washed twice by centrifugation, homogenised and again washed by centrifugation. The final washed membrane pellet was suspended in a Tris (50 mM) buffer containing 120 mM NaCl, 5 mM KCl, 2 mM CaCl2 and 10 mM MgCl2 (pH 7.4) (buffer A). The [^3H]-SCH-58261 (Dionisotti et al., 1997, Br J Pharmacol 121, 353; 1 nM) binding assay was carried out in 96-well plates in the presence of 2.5 μg of membrane protein, 0.5 mg of Ysi-poly-1-lysine SPA beads and 0.1 U adenosine deaminase in a final volume of 200 μl of buffer A. Non-specific binding was defined using xanthine amine congener (XAC; 2 μM). Compounds were tested at 10 concentrations from 10 μM–0.3 nM. All assays were conducted in duplicate and repeated at least two times. Assay plates were incubated for 1 hour at room temperature before centrifugation and then bound ligand determined using a Packard Topcount scintillation counter. IC50 values, the concentration where 50% of the […] binding is displaced, were calculated using a non-linear curve fitting program and Ki values calculated using the Cheng-Prussoff equation.
A general note: Loss of bound radioactivity is the signal in a displacement assay; it reports binding, not function.

T1 sequence (P29274 whole entry): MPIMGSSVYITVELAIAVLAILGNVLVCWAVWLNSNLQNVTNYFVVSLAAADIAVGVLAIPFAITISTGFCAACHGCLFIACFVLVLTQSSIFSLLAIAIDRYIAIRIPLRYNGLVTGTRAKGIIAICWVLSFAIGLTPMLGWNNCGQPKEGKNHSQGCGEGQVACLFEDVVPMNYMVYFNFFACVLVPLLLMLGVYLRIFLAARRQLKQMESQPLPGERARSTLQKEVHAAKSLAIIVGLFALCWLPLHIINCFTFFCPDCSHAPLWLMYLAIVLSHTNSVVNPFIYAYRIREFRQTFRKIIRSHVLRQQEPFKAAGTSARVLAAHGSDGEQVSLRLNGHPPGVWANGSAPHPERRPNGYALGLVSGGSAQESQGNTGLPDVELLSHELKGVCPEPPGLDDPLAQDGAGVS

The molecule `COc1ccc(N2CCOCC2)c2sc(NC(=O)N3CC4CCC3CO4)nc12` (stereo not drawn) [Example 30, 2-Oxa-5-aza-bicyclo[2.2.2]octane-5-carboxylic acid (4-methoxy-7-morpholin-4-yl-benzothiazol-2-yl)-amide] gave a melting point of 164 to 170 °C. Moreover, the Ki in data set [1] was 5.01 nM.

As to `COc1ccc(N2CCOCC2)c2sc(NC(=O)N(C)C3CCCC3)nc12` [Example 36, 1-Cyclopentyl-3-(4-methoxy-7-morpholin-4-yl-benzothiazol-2-yl)-1-methyl-urea], the melting point lay within 110 to 125 °C. In addition, in data set [1], the Ki is 7.94 nM.

The molecule `COc1ccc(N2CCOCC2)c2sc(NC(=O)N(C)C3CCOCC3)nc12` [Example 34, 3-(4-Methoxy-7-morpholin-4-yl-benzothiazol-2-yl)-1-methyl-1-(tetrahydro-pyran-4-yl)-urea] registered a melting point of 240 to 242 °C. Also, the Ki in data set [1] was 15.8 nM.

As a reminder, the melting point is the temperature of the solid-liquid transition.
